Experiments:
[1] = test system: PC3 (prostate) cancer cells; experiment: In vitro cytotoxic activity MTT assay, PC3; format: cell-based; settings: Homo sapiens, PC-3, exposed for 96 hours, 50% inhibition of cell proliferation, read-out: Cytotoxicity IC50, PC3 (prostate)
Description: (§1) Compounds 1-12 were screened for their in vitro cytotoxic activity utilizing a 3-(4,5-dimethyl-thiazol-2-yl)-2,5-diphenyltetrazolium bromide (MTT) assay against selected cancer human cell lines consisting of PC3 (prostate), HCT116 (colon), A375 (melanoma), H1299 (lung), MIAPaCa-2 (pancreas), HL60 (leukemia), MCF7 (breast), MDA-MB-231 (breast) (T. Mosmann, J. Immunol. Meth., 1983, 65, 55-63). The cells were cultured at 37° C. in RMPI1640 medium supplemented with 10% fetal bovine serum, 50 IU/mL penicillin, and 50 μg/mL streptomycin in a 5% CO2 incubator. All cells were sub-cultured 3 times/week by trypsinisation. Viable cells were seeded and allowed to adhere for 12 h before a test drug was added in 96-well plates at an initial density of 1.0×10^5 cells/mL. Tumour cell lines were separately exposed to various concentrations of the tested compounds followed by incubation at a temperature of 37° C. during 96 h inside a medium of fresh RMPI 1640. Cells were subsequently incubated at 37° C. using MTT at 0.5 mg/mL during 4 h. After removal of supernatant, formazan crystals were dissolved in isopropanol and the optical density was measured at 570 nm. CX-4945 was used as a positive control.

[2] = test system: HCT116 (colon) cancer cells; experiment: In vitro cytotoxic activity MTT assay, HCT116; format: cell-based; settings: Homo sapiens, HCT-116, exposed for 96 hours, 50% inhibition of cell proliferation, read-out: Cytotoxicity IC50, HCT116 (colon)
Description: as §1

[3] = test system: A375 (melanoma) cancer cells; experiment: In vitro cytotoxic activity MTT assay, A375; format: cell-based; settings: Homo sapiens, A-375, exposed for 96 hours, 50% inhibition of cell proliferation, read-out: Cytotoxicity IC50, A375 (melanoma)
Description: as §1

[4] = test system: H1299 (lung) cancer cells; experiment: In vitro cytotoxic activity MTT assay, H1299; format: cell-based; settings: Homo sapiens, NCI-H1299, exposed for 96 hours, 50% inhibition of cell proliferation, read-out: Cytotoxicity IC50, H1299 (lung)
Description: as §1

[5] = test system: MIAPaCa-2 (pancreas) cancer cells; experiment: In vitro cytotoxic activity MTT assay, MIAPaCa-2; format: cell-based; settings: Homo sapiens, MIA PaCa-2; MIAPaCa-2 cells, exposed for 96 hours, 50% inhibition of cell proliferation; read-out: Cytotoxicity IC50, MIAPaCa-2 (pancreas)
Description: as §1

[6] = test system: HL60 (leukemia) cancer cells; experiment: In vitro cytotoxic activity MTT assay, HL60; format: cell-based; settings: Homo sapiens, HL-60, exposed for 96 hours, 50% inhibition of cell proliferation, read-out: Cytotoxicity IC50, HL60 (leukemia)
Description: as §1

[7] = test system: MCF7 (breast) cancer cells; experiment: In vitro cytotoxic activity MTT assay, MCF7; format: cell-based; settings: Homo sapiens, exposed for 96 hours, 50% inhibition of cell proliferation, read-out: Cytotoxicity IC50, MCF7 (breast)
Description: as §1

[8] = test system: MDA-MB-231 (breast) cancer cells; experiment: In vitro cytotoxic activity MTT assay, MDA-MB-231; format: cell-based; settings: Homo sapiens; MDA-MB-231 cells, exposed for 96 hours, 50% inhibition of cell proliferation; read-out: Cytotoxicity IC50, MDA-MB-231 (breast)
Description: as §1

[9] = molecular target: T1, recombinant human CK2 (RRββ-holoenzyme) (Homo sapiens, UniProt P68400); experiment: CK2 Kinase Assay (33P-ATP, filter plate); format: biochemical; settings: final ATP concentration 15 μM, 10 min at 30° C, eight concentrations; read-out: protein kinase CK2 IC50
T1 construct: purchased Millipore
Description: CK2 Kinase Assay was conducted using the protocol as described in Pierre F. et al; J. Med. Chem. 2011, 54, 635-654. The tested compounds in aqueous solution were added at a volume of 10 μL to a reaction mixture comprising 10 μL of assay dilution buffer (ADB; 20 mM MOPS, pH 7.2, 25 mM β-glycerol phosphate, 5 mM EGTA, 1 mM sodium orthovanadate, and 1 mM dithiothreitol), 10 μL of substrate peptide (RRRDDDSDDD, dissolved in ADB at a concentration of 1 mM), 10 μL of recombinant human CK2 (RRββ-holoenzyme, 25 ng dissolved in ADB; Millipore). Reactions were initiated by the addition of 10 μL of ATP solution (90% 75 mM MgCl2, 75 μM ATP (final ATP concentration: 15 μM) dissolved in ADB; 10% [γ-33P] ATP (stock 1 mCi/100 μL; 3000 Ci/mmol (Perkin-Elmer) and maintained for 10 min at 30° C. The reactions were quenched with 100 μL of 0.75% phosphoric acid and then transferred to and filtered through a phosphor cellulose filter plate (Millipore). After washing each well five times with 0.75% phosphoric acid, the plate was dried under vacuum for 5 min and, following the addition of 15 μL of scintillation fluid to each well, the residual radioactivity was measured using a Wallac […] counter. The IC50 values were derived from eight concentrations of test inhibitors.

T1 sequence (P68400 whole entry): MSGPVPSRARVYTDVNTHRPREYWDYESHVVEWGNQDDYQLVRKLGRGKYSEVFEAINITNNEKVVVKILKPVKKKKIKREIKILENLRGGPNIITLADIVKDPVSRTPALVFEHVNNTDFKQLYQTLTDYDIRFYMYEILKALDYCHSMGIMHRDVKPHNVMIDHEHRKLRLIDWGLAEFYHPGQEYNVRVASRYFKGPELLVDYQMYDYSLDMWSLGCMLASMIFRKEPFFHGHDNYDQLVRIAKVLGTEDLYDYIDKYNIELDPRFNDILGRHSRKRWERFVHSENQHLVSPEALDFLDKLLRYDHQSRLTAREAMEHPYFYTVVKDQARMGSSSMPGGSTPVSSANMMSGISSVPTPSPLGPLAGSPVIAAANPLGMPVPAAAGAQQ
T1 sequence (P67870 whole entry partner): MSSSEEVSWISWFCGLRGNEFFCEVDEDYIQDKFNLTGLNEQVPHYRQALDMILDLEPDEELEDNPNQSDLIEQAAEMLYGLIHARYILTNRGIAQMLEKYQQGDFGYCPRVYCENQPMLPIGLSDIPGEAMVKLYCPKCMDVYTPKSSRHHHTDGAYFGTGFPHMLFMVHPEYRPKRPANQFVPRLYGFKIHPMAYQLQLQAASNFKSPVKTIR

`Clc1cccc(Nc2nc3cnccc3c3nc4cnccn4c23)c1` [Compound 1, N-(3-chlorophenyl)pyrazino[2′,1′:2,3]imidazo[4,5-c][1,7]naphthyridin-6-amine] gave an IC50 [1] of 1.1 µM, an IC50 [2] of 1.4 µM and an IC50 [3] of 3.1 µM. The IC50 [4] was 1.9 µM, the IC50 [5] was 1.2 µM and the IC50 [6] was 3.3 µM. The IC50 [7] was 5.6 µM, the IC50 [8] was 4.8 µM and the IC50 [9] was 0.018 µM.

Source: patent publication US11958853B1, “6-substituted aminopyrazino[2′,1′:2,3]imidazo[4,5-c][1,7]naphthyridine compounds as CK2 inhibitors” (KING FAISAL UNIVERSITY, priority 2023, dated 2024)
